In patent publication US20230000870A1, “METHODS OF TREATING CANCER IN BIOMARKER-IDENTIFIED PATIENTS WITH INHIBITORS OF CYCLIN-DEPENDENT KINASE 7 (CDK7)” (Syros Pharmaceuticals, Inc., priority 2019, published 2023):

Columns and labels:
[1] = target: CDK7/Cyclin H/MAT1 complex (Homo sapiens, UniProt P50613); assay: CDK7 kinase inhibition assay (Caliper/LabChip EZ Reader); type: biochemical; settings: CDK7/Cyclin H/MAT1 6 nM, ATP 2 mM, 35 min at 27° C.
Procedure, shortened: (§1)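 Incubation times were set for ~20% (±5%) peptide phosphorylation by uninhibited enzyme: CDK7 35 min, CDK2 35 min (0.5 nM complex, 2 μM 5-FAM-CDK7tide, 2 mM MgCl2), CDK12 3 hr (50 nM, 2 μM 5-FAM-CDK9tide, 2 mM MgCl2), CDK9 15 min (8 nM, 2 μM 5-FAM-CDK9tide, 10 mM MgCl2). Read-out on LabChip EZ Reader, 27° C.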

[2] = test system: HCC70 cells; assay: Inhibition of proliferation of HCC70 cells (CyQUANT Direct, 72 hour); type: cell-based, human; settings: read-out: Inhibition of Proliferation of HCC70 Cells (calculated IC50)
Procedure: HCC70 cells: HCC70 cells are a cell line derived from human triple negative breast cancer. Representative compounds of the invention were tested at different concentrations (from 4 μM to […]; 0.5 log serial dilutions) for their ability to inhibit the proliferation of HCC70 cells. Known CDK inhibitors dinaciclib or N-((1S,3R)-3-((5-chloro-4-(1H-indol-3-yl) pyrimidin-2-yl)amino)cyclohexyl)-5-((E)-4-(dimethylamino)but-2-enamido)picolinamide and triptolide were used as positive controls. Cells were grown in ATCC-formulated RPMI-1640 Medium (ATCC 30-2001)+10% FBS. The cells were cultured at 37° C. in a humidified chamber in the presence of 5% CO2. Proliferation assays were conducted over a 72 hour time period. CyQUANT® Direct Cell Proliferation Assay (Life Technologies, Chicago, Ill. USA) was used to assess the anti-proliferative effects of the compounds following manufacturer's directions and utilizing the reagents supplied with the CyQUANT® Direct Cell kit.

[3] = test system: A673 cells; assay: Inhibition of proliferation of A673 cells (CyQUANT, 72 hour); type: cell-based, human; settings: read-out: Inhibition of Proliferation of A673 Cells (calculated IC50)
Procedure, shortened: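 Read-out is CyQUANT after a 72 h proliferation period, following the kit protocol. Dilution series in 0.5-log steps over the stated 4 μM to […] range. Cells are A673 (human Ewing's sarcoma), grown in DMEM with 10% FBS and 1 mM sodium pyruvate at 37 °C under 5% CO2.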

[4] = target: CDK9/Cyclin T1 complex (Homo sapiens, UniProt P50750); assay: CDK9 kinase inhibition assay (Caliper/LabChip EZ Reader); type: biochemical; settings: CDK9/Cyclin T1 8 nM, ATP 2 mM, 15 min at 27° C.
Procedure, shortened: as §1

[5] = target: T1, CDK12 (aa686-1082)/Cyclin K complex (Homo sapiens, UniProt Q9NYV4); assay: CDK12 kinase inhibition assay (Caliper/LabChip EZ Reader); type: biochemical; settings: CDK12 (aa686-1082)/Cyclin K 50 nM, ATP 2 mM, 3 hr at 27° C.
T1 construct: CDK12 (aa686-1082)/Cyclin K complex
Procedure, shortened: as §1

[6] = target: CDK2/Cyclin E1 complex (Homo sapiens, UniProt P24941); assay: CDK2 kinase inhibition assay (Caliper/LabChip EZ Reader); type: biochemical; settings: CDK2/Cyclin E1 0.5 nM, ATP 2 mM, 35 min at 27° C.
Procedure, shortened: as §1

Sequence of CDK9/Cyclin T1 complex (P50750 whole entry): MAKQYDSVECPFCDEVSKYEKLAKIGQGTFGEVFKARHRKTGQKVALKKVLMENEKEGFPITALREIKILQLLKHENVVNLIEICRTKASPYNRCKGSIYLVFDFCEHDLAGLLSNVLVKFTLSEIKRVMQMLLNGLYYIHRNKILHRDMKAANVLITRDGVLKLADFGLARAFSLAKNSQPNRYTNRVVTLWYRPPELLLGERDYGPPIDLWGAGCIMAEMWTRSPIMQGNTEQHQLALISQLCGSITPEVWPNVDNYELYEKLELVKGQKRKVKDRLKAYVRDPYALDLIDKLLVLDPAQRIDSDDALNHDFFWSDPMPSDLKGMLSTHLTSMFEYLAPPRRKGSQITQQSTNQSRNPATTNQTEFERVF
Sequence of CDK9/Cyclin T1 complex (O60563 whole entry partner): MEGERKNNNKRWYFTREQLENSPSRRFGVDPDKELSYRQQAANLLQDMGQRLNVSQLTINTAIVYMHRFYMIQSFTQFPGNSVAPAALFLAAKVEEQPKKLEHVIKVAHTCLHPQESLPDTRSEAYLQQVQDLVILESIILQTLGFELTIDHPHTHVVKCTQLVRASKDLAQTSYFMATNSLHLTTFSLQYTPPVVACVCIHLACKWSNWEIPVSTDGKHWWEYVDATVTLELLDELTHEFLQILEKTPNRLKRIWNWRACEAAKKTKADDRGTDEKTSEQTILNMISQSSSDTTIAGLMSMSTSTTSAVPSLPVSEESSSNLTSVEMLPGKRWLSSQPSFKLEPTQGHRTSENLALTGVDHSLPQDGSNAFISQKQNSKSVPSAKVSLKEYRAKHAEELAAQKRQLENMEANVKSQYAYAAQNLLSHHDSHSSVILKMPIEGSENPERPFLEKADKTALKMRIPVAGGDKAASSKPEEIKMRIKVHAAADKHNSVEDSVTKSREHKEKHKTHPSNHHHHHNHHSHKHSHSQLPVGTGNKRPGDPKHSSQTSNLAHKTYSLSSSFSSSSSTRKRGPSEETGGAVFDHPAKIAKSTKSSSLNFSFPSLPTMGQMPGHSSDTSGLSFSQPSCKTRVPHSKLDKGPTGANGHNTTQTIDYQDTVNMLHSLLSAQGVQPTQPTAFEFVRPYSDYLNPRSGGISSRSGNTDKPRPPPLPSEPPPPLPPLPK
T1 sequence (Q9NYV4 686-1082): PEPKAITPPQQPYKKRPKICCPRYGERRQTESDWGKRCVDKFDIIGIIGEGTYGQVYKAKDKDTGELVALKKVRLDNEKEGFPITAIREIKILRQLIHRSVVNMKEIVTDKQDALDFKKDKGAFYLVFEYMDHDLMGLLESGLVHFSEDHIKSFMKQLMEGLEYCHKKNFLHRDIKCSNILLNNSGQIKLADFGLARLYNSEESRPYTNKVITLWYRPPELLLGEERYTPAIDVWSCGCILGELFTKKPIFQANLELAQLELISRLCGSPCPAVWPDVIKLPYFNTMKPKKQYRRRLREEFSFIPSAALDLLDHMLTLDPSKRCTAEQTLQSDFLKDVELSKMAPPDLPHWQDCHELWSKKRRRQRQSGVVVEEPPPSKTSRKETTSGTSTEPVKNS
T1 sequence (O75909 whole entry partner, the tested form may be a part): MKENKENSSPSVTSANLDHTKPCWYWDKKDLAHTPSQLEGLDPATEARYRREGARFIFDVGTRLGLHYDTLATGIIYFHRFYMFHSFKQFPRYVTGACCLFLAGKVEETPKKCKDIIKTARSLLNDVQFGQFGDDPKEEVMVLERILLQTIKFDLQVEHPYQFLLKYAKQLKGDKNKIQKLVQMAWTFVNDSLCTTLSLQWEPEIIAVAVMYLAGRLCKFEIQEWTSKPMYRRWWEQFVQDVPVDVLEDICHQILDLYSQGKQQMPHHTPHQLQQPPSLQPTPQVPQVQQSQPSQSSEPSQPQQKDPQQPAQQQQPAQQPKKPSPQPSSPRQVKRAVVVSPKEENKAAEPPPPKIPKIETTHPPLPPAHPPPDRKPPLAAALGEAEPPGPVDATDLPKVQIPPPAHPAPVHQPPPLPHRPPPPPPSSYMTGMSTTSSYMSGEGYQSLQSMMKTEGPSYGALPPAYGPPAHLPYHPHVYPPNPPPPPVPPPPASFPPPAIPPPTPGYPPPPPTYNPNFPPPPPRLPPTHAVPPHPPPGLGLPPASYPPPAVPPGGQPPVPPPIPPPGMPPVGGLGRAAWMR
Sequence of CDK7/Cyclin H/MAT1 complex (P50613 whole entry): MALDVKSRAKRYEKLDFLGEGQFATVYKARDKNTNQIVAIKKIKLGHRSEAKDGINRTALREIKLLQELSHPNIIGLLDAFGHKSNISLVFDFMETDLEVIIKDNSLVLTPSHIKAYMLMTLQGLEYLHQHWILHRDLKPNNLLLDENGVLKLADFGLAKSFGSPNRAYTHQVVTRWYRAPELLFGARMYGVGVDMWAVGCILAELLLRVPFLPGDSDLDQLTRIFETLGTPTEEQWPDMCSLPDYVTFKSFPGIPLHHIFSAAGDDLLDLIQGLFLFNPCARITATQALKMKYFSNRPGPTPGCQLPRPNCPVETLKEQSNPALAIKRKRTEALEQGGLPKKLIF
Sequence of CDK7/Cyclin H/MAT1 complex (P51946 whole entry partner): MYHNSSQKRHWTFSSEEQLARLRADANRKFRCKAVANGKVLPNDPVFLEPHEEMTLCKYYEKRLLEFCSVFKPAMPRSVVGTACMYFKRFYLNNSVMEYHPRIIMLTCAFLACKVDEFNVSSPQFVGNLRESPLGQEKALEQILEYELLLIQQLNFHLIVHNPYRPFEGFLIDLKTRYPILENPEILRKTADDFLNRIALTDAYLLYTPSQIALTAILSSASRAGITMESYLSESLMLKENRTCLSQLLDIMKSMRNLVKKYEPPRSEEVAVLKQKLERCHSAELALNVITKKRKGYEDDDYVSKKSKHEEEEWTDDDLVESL
Sequence of CDK7/Cyclin H/MAT1 complex (P51948 whole entry partner): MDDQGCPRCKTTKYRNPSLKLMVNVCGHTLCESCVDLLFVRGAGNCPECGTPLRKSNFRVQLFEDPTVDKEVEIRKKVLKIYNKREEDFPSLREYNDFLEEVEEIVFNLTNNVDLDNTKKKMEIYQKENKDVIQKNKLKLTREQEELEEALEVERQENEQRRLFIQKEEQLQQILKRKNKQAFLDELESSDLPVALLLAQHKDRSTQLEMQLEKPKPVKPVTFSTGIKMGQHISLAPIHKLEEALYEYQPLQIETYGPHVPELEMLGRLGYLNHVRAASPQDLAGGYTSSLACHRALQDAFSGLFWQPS

Row | IC50 [1] [nM] | IC50 [4] [µM] | IC50 [5] [µM] | IC50 [6] [µM] | SMILES | IC50 [2] [nM] | IC50 [3] [nM]
1 | < 20 | 0.2 to 5 | 0.2 to 5 | 0.2 to 5 | FC(F)(F)c1cnc(NC2CCCNC2)nc1-c1c[nH]c2cc(-c3cc[nH]n3)ccc12 (stereo not drawn) [Compound 291] | 100 to 1000 | 20 to 200
2 | 20 to 200 | 0.2 to 5 | 0.02 to 0.2 | 0.2 to 5 | Fc1cccc2c(-c3nc(NC4CCCNC4)ncc3Cl)c[nH]c12 (stereo not drawn) [Compound 107] | 100 to 1000 | < 20
3 | 20 to 200 | 0.2 to 5 | 0.2 to 5 | 0.2 to 5 | FC(F)n1ccc(-c2ccc3c(-c4nc(NC5CCCNC5)ncc4C(F)(F)F)c[nH]c3c2)n1 (stereo not drawn) [Compound 289] | 100 to 1000 | 20 to 200
4 | < 20 | 0.2 to 5 | 0.2 to 5 | 0.2 to 5 | N#Cc1ccc2c(-c3nc(NC4CCCNC4)ncc3C(F)(F)F)c[nH]c2n1 (stereo not drawn) [Compound 251] | < 100 | < 20
5 | < 20 | ≥ 5 | 0.2 to 5 | 0.2 to 5 | O=C(c1ccc2c(-c3nc(N[C@H]4CCCNC4)ncc3C(F)(F)F)c[nH]c2c1)N1CC[C@@H](O)C1 [Compound 250] | 1000 to 5000 | 200 to 5000
6 | < 20 | 0.2 to 5 | 0.2 to 5 | 0.2 to 5 | CS(=O)(=O)c1c(C#N)ccc2c(-c3nc(N[C@H]4CCCNC4)ncc3C(F)(F)F)c[nH]c12 [Compound 232] | < 100 | < 20
7 | < 20 | ≥ 5 | ≥ 5 | ≥ 5 | CCc1cnc(NC2CCCNC2)nc1-c1c[nH]c2cc(C#N)ccc12 (stereo not drawn) [Compound 246] | 100 to 1000 | 200 to 5000
8 | – | – | – | – | Cn1cc(-c2nc(NC3CCCNC3)ncc2C(F)(F)F)c2ccc(C#N)nc21 (stereo not drawn) [Compound 273] | 1000 to 5000 | 200 to 5000
9 | 20 to 200 | ≥ 5 | ≥ 5 | ≥ 5 | CCN1CC(Nc2ncc(C(F)(F)F)c(-c3c[nH]c4cc(S(C)(=O)=O)ccc34)n2)CC(C)(C)C1 (stereo not drawn) [Compound 369] | 100 to 1000 | –
10 | 20 to 200 | ≥ 5 | ≥ 5 | ≥ 5 | CCc1cnc(NC2CCCNC2)nc1-c1c[nH]c2c(S(=O)(=O)C(C)C)cccc12 (stereo not drawn) [Compound 356] | 100 to 1000 | –
11 | 20 to 200 | 0.2 to 5 | 0.2 to 5 | 0.2 to 5 | O=C(c1cccc(-c2ccc3c(-c4nc(NC5CCCNC5)ncc4C(F)(F)F)c[nH]c3c2)c1)N1CCCC1 (stereo not drawn) [Compound 340] | 1000 to 5000 | –
12 | < 20 | 0.2 to 5 | 0.2 to 5 | 0.2 to 5 | O=C(c1ccc2c(-c3nc(NC4CCCNC4)ncc3C(F)(F)F)c[nH]c2c1)N1CCC(O)(C(F)(F)F)C1 (stereo not drawn) [Compound 300] | 100 to 1000 | –
13 | 20 to 200 | 0.2 to 5 | 0.2 to 5 | 0.2 to 5 | FC(F)(F)c1cnc(N[C@H]2CCCNC2)nc1-c1c[nH]c2cc(-c3ccc4ncsc4c3)ccc12 [Compound 343] | 100 to 1000 | –
14 | 20 to 200 | ≥ 5 | ≥ 5 | ≥ 5 | Cn1cc(-c2nc(NC3CCCNC3)ncc2C(F)(F)F)c2cccc(S(C)(=O)=O)c21 (stereo not drawn) [Compound 296] | 1000 to 5000 | –
15 | 20 to 200 | ≥ 5 | 0.2 to 5 | ≥ 5 | FC(F)(F)c1cnc(NC2CCCNC2)nc1-c1c[nH]c2cc(-c3ccc4c(c3)OCCO4)ccc12 (stereo not drawn) [Compound 342] | 1000 to 5000 | –
16 | < 20 | 0.2 to 5 | 0.2 to 5 | 0.2 to 5 | FC(F)(F)Sc1cnc(NC2CCCNC2)nc1-c1c[nH]c2ccccc12 (stereo not drawn) [Compound 305] | 1000 to 5000 | –
17 | < 20 | ≥ 5 | 0.2 to 5 | 0.2 to 5 | Oc1ncccc1-c1ccc2c(-c3nc(NC4CCCNC4)ncc3C(F)(F)F)c[nH]c2c1 (stereo not drawn) [Compound 310] | 100 to 1000 | –

Row | IC50 [1] [nM] | IC50 [4] [µM] | IC50 [5] [µM] | IC50 [6] [µM] | SMILES | IC50 [2] [nM] | IC50 [3] [nM]
18 | 20 to 200 | ≥ 5 | 0.2 to 5 | ≥ 5 | N#Cc1ccc2c(-c3nc(NC4CNCC(F)C4)ncc3C(F)(F)F)c[nH]c2c1 (stereo not drawn) [Compound 368] | 1000 to 5000 | –
19 | < 20 | 0.2 to 5 | 0.2 to 5 | 0.2 to 5 | CS(=O)(=O)c1c(C#N)ccc2c(-c3nc(NC4CCCNC4)ncc3Cl)c[nH]c12 (stereo not drawn) [Compound 294] | < 100 | –
20 | < 20 | ≥ 5 | 0.2 to 5 | ≥ 5 | Cn1cc(-c2ccc3c(-c4nc(NC5CCCNC5)ncc4C(F)(F)F)c[nH]c3c2)ccc1=O (stereo not drawn) [Compound 321] | 100 to 1000 | –
21 | 20 to 200 | ≥ 5 | 0.2 to 5 | 0.2 to 5 | CC1(C)CNC[C@@H](Nc2ncc(C(F)(F)F)c(-c3c[nH]c4cc(S(C)(=O)=O)ccc34)n2)C1 [Compound 376] | 100 to 1000 | –
22 | 20 to 200 | ≥ 5 | 0.2 to 5 | 0.2 to 5 | O=C(O)c1ccc2c(-c3nc(NC4CCCNC4)ncc3C(F)(F)F)c[nH]c2c1 (stereo not drawn) [Compound 306] | 100 to 1000 | –
23 | < 20 | 0.2 to 5 | 0.2 to 5 | 0.2 to 5 | O=C(c1ccc2c(-c3nc(NC4CCCNC4)ncc3C(F)(F)F)c[nH]c2c1)N1CCC(O)(C(F)(F)F)C1 (stereo not drawn) [Compound 299] | 1000 to 5000 | –
24 | < 20 | 0.2 to 5 | 0.2 to 5 | 0.2 to 5 | OCc1cncc(-c2ccc3c(-c4nc(NC5CCCNC5)ncc4C(F)(F)F)c[nH]c3c2)c1 (stereo not drawn) [Compound 318] | 100 to 1000 | –
25 | 20 to 200 | 0.2 to 5 | 0.2 to 5 | 0.2 to 5 | CC(C)S(=O)(=O)c1ccc2c(-c3nc(NC4CCCNC4)ncc3C(F)(F)F)c[nH]c2c1 (stereo not drawn) [Compound 346] | 100 to 1000 | –
26 | < 20 | 0.2 to 5 | 0.2 to 5 | 0.2 to 5 | Cc1noc(C)c1-c1ccc2c(-c3nc(N[C@H]4CCCNC4)ncc3C(F)(F)F)c[nH]c2c1 [Compound 330] | < 100 | –
27 | ≥ 5000 | ≥ 5 | ≥ 5 | ≥ 5 | CC(C)(C)OC(=O)N1CCC[C@H](Nc2ncc(C(F)(F)F)c(-c3c[nH]c4cc(P(C)(C)=O)ccc34)n2)C1 [Compound 352] | 1000 to 5000 | –
28 | < 20 | 0.2 to 5 | 0.2 to 5 | 0.2 to 5 | Cn1ccc(-c2ccc3c(-c4nc(NC5CCCNC5)ncc4C(F)(F)F)c[nH]c3c2)n1 (stereo not drawn) [Compound 303] | 100 to 1000 | –
29 | 20 to 200 | ≥ 5 | 0.2 to 5 | ≥ 5 | COC1CCN(C(=O)c2ccc3c(-c4nc(NC5CCCNC5)ncc4C(F)(F)F)c[nH]c3c2)C1 (stereo not drawn) [Compound 280] | 100 to 1000 | –
30 | < 20 | 0.2 to 5 | 0.2 to 5 | 0.2 to 5 | O=S(=O)(c1ccc2c(-c3nc(NC4CCCNC4)ncc3C(F)(F)F)c[nH]c2c1)C(F)F (stereo not drawn) [Compound 375] | 100 to 1000 | –
31 | < 20 | 0.2 to 5 | 0.2 to 5 | 0.2 to 5 | O=C(c1ccc2c(-c3nc(NC4CCCNC4)ncc3C(F)(F)F)c[nH]c2c1)N1CC(O)C(F)(F)C1 (stereo not drawn) [Compound 308] | 100 to 1000 | –
32 | 20 to 200 | ≥ 5 | 0.2 to 5 | 0.2 to 5 | FC(F)(F)c1cnc(N[C@H]2CCCNC2)nc1-c1c[nH]c2cc(-c3cccc4cnccc34)ccc12 [Compound 344] | 100 to 1000 | –
33 | 20 to 200 | ≥ 5 | 0.2 to 5 | ≥ 5 | CC1(C)CCC(Nc2ncc(C(F)(F)F)c(-c3c[nH]c4cc(C#N)ccc34)n2)CN1 (stereo not drawn) [Compound 350] | 100 to 1000 | –
34 | < 20 | 0.2 to 5 | 0.2 to 5 | 0.2 to 5 | NC(=O)c1cccc(-c2ccc3c(-c4nc(NC5CCCNC5)ncc4C(F)(F)F)c[nH]c3c2)c1 (stereo not drawn) [Compound 314] | 100 to 1000 | –
